Data: paper PMC4080982, “Interactions of antagonists with subtypes of inositol 1,4,5-trisphosphate (IP3) receptor” (British Journal of Pharmacology, 2014)

What was measured:
[1] = target: T1, NT2 (residues 1–604 of mouse IP3R2) (Mus musculus, UniProt Q9Z329); experiment: Equilibrium-competition binding with ^3H-IP3 to purified NT2; settings: NT versus corresponding full-length IP3R
T1 construct: N-terminal fragments (NT, residues 1–604) of rat IP3R1, mouse IP3R2 and rat IP3R3; GST (cleaved yes); made in house; host or cells: E. coli BL21-CodonPlus (DE3)-RILP
T1 sequence (Q9Z329 1-604): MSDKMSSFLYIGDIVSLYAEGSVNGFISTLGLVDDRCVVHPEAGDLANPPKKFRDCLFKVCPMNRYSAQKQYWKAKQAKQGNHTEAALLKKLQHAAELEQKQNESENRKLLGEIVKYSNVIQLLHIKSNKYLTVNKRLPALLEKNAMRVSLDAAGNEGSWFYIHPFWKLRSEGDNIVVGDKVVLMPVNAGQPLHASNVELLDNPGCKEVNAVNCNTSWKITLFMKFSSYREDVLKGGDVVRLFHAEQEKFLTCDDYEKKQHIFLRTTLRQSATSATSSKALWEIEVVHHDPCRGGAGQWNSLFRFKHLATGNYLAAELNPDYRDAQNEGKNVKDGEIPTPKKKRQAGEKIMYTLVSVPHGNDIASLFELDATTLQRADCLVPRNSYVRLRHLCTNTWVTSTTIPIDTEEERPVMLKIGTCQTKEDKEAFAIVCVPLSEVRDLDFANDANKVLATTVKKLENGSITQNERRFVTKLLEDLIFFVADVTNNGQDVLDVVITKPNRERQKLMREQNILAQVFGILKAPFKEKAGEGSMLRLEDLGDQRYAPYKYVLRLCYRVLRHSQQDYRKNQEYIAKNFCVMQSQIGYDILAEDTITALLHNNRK
Experimental: The plasmids used for bacterial expression of GST-tagged N-terminal fragments (NT, residues 1–604) of rat IP3R1, mouse IP3R2 and rat IP3R3 have been described, and their coding sequences have been confirmed (Khan et al., [2013]). Plasmids were transformed into BL21-CodonPlus (DE3)-RILP competent cells (Rossi and Taylor, [2011]), and grown for 12 h at 37°C in 20 mL of Luria-Bertani (LB) medium containing carbecillin (50 μg·mL^−1). The volume of medium was then increased to 1 L, and the incubation was continued at 37°C for 3–4 h until the OD600 reached 1–1.5. Protein expression was induced by addition of IPTG (0.5 mM) for 20 h at 15°C. Bacteria were harvested (6000× g, 5 min), washed twice with cold PBS, and the pellet was suspended (∼10^9 cells·mL^−1) in 50 mL of Tris-EDTA medium (TEM: 50 mM Tris, 1 mM EDTA, pH 8.3) supplemented with 10% PopCulture, 1 mM 2-mercaptoethanol and protease inhibitor cocktail (Roche, Burgess Hill, West Sussex, UK; 1 tablet per 50 mL). […]
(§1) Reactions were terminated after 5 min by centrifugation (20,000× g, 5 min) for membranes, or by centrifugation after addition of poly(ethylene glycol)-8000 [30% (w/v), 500 μL] and γ-globulin (30 μL, 25 mg·mL^−1) for NT. […] Results were fitted to Hill equations using Prism, from which IC50 values were calculated.

rat IP3R3 = target: T2, rat IP3R3 (Rattus norvegicus, UniProt Q63269); experiment: IP3-evoked Ca^2+ release from permeabilized DT40-IP3R3 cells; assay type: cell-based
T2 construct: different for NTs (NT2 > NT1 > > NT3) and full-length IP3Rs (IP3R3 > IP3R1 ≥ IP3R2); expressed in transfected cells
Experimental: (§2) We used DT40 cells lacking endogenous IP3Rs (Sugawara et al., [1997]), but stably expressing rat IP3R1 (GenBank accession number GQ233032.1; Pantazaka and Taylor, [2011]), mouse IP3R2 (GU980658.1; Tovey et al., [2010]) or rat IP3R3 (GQ233031.1; Rahman et al., [2009]). Cells were grown in suspension in RPMI 1640 medium supplemented with 10% FBS, 1% heat-inactivated chicken serum, 2 mM glutamine and 50 μM 2-mercaptoethanol at 37°C in humidified air containing 5% CO2. Cells were used or passaged when they reached a density of ∼1.5 × 10^6 cells mL^−1.
(§3) A low-affinity Ca^2+ indicator trapped within the ER of permeabilized DT40 cells was used to measure IP3-evoked Ca^2+ release (Tovey et al., [2006]; Saleem et al., [2012]). Briefly, the ER was loaded with indicator by incubating cells (∼5 × 10^7 mL^−1) in the dark with Mag-fluo-4AM (20 μM) in HEPES-buffered saline (HBS) containing 0.02% (v/v) Pluronic F127 for 1 h at 22°C. HBS had the following composition: 135 mM NaCl, 5.9 mM KCl, 11.6 mM HEPES, 1.5 mM CaCl2, 11.5 mM glucose, 1.2 mM MgCl2, pH 7.3. After permeabilization of the plasma membrane with saponin (10 μg·mL^−1, 4 min, 37°C) in Ca^2+-free cytosol-like medium (CLM), permeabilized cells were washed (650× g, 2 min) and resuspended (∼10^7 mL^−1) in Mg^2+-free CLM containing carbonyl cyanide 4-(trifluoromethoxy) phenylhydrazone (FCCP, 10 μM) to inhibit mitochondria, and supplemented with CaCl2 to give a final free [Ca^2+] of 220 nM after addition of 1.5 mM MgATP. Ca^2+-free CLM had the following composition: 2 mM NaCl, 140 mM KCl, 1 mM EGTA, 20 mM PIPES, 2 mM MgCl2, pH 7.0. Permeabilized cells were then distributed into 96-well plates (50 μL, 5 × 10^5 cells per well), centrifuged (300× g, 2 min) and used for experiments at 20°C. Addition of MgATP (1.5 mM) allowed Ca^2+ uptake by the ER, which was monitored at intervals of ∼1 s using a FlexStation-3 plate reader (MDS Analytical Devices, Berkshire, UK; Tovey et al., [2006]). After 2 min, when the ER had loaded to steady-state with Ca^2+, IP3 was added with CPA (10 μM) to inhibit further Ca^2+ uptake. IP3-evoked Ca^2+ release was expressed as a fraction of that released by ionomycin (1 μM; Tovey et al., [2006]). Similar methods were used to measure IP3-evoked Ca^2+ release from intact or permeabilized HEK cells (Tovey et al., [2008]). The timings of antagonist additions are described in the figure legends. The affinity of each competitive antagonist (pKD) was determined from the intercept on the abscissa of the Schild plot.
(§4) Concentration–effect relationships were fitted to Hill equations using Prism (version 5.0, GraphPad, San Diego, CA, USA), from which Hill coefficients (h), the fraction of the intracellular Ca^2+ stores released by a maximally effective concentrations of IP3, and pEC50 values were calculated.

rat IP3R1 = target: T3, rat IP3R1 (Rattus norvegicus, UniProt P29994); experiment: IP3-evoked Ca^2+ release from permeabilized DT40-IP3R1 cells; assay type: cell-based
T3 construct: different for NTs (NT2 > NT1 > > NT3) and full-length IP3Rs (IP3R3 > IP3R1 ≥ IP3R2); expressed in transfected cells
Experimental: as §2, §3, §4

mouse IP3R2 = target: T4, mouse IP3R2 (Mus musculus, UniProt Q9Z329); experiment: IP3-evoked Ca^2+ release from permeabilized DT40-IP3R2 cells; assay type: cell-based
T4 construct: different for NTs (NT2 > NT1 > > NT3) and full-length IP3Rs (IP3R3 > IP3R1 ≥ IP3R2); expressed in transfected cells
T4 sequence (Q9Z329 whole entry): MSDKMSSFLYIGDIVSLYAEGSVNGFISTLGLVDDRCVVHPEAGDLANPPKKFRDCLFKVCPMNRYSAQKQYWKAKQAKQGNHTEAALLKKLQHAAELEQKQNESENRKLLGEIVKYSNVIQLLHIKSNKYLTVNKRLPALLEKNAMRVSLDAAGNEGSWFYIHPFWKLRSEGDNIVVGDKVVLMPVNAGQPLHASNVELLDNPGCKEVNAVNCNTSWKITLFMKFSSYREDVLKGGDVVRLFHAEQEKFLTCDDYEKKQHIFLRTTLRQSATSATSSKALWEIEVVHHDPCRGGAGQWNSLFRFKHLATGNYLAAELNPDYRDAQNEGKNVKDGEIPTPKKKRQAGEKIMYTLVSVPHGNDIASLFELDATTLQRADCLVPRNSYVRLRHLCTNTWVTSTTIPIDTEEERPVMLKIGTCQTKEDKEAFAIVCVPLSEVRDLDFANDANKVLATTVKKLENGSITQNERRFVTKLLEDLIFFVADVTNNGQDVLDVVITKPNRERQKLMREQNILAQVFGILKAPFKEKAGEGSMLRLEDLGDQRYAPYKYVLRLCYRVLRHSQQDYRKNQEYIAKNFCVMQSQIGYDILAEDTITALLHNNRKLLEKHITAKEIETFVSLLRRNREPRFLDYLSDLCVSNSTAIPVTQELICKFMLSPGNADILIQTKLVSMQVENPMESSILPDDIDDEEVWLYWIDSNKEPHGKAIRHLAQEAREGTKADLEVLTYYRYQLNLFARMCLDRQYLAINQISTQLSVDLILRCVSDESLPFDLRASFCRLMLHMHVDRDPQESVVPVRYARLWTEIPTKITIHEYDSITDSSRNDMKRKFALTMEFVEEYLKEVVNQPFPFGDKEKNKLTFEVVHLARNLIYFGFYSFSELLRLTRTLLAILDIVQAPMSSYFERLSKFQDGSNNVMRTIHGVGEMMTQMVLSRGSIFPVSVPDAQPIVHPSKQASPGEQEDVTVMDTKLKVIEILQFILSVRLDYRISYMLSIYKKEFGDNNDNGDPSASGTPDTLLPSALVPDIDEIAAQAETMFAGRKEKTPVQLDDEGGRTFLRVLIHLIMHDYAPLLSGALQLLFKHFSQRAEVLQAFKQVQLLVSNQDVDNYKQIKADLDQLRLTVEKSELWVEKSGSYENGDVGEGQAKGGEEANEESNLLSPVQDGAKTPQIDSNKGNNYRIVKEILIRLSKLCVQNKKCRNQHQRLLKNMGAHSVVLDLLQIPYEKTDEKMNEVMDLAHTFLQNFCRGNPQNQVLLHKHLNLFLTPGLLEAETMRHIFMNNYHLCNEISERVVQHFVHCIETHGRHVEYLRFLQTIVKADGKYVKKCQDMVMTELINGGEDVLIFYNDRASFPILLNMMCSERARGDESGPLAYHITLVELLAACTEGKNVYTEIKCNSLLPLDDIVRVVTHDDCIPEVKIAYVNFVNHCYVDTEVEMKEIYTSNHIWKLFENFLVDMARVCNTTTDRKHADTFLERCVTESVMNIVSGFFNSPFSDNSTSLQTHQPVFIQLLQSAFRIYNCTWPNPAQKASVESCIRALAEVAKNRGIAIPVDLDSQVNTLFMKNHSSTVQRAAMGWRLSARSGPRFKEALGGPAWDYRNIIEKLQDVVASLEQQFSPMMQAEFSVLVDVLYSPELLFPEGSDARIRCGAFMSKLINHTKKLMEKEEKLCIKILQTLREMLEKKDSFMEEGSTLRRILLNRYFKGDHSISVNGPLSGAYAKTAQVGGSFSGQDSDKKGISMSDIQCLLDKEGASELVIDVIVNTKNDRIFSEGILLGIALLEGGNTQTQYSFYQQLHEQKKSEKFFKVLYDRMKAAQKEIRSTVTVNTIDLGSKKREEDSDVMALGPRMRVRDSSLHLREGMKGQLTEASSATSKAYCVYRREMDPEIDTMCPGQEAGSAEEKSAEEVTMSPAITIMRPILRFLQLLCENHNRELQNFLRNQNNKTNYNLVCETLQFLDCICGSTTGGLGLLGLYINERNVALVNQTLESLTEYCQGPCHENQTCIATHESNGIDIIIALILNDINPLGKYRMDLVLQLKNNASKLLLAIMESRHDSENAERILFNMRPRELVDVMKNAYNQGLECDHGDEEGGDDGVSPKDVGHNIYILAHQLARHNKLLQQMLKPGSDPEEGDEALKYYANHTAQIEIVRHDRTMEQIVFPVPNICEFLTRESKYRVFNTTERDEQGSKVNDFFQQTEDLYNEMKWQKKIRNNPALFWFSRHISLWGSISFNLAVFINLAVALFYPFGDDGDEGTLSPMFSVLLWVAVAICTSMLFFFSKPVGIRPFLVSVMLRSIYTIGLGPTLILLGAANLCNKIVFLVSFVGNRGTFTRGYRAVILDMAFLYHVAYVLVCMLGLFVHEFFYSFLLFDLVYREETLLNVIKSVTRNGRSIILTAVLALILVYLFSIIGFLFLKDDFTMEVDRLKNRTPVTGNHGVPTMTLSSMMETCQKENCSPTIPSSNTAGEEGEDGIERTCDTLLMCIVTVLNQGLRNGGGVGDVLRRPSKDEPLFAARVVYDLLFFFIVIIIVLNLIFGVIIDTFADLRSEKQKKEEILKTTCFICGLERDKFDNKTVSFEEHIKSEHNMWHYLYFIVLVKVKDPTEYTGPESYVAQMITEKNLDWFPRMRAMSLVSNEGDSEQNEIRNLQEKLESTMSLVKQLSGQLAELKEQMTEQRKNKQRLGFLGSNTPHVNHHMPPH
Experimental: as §2, §3, §4

[2] = test system: cerebellar membranes (IP3R1); experiment: ^3H-IP3 binding to cerebellar membranes; settings: ^3H-IP3 1.5 nM, in CLM
Experimental: as §1

[3] = test system: permeabilized DT40-IP3R1-3 cells; experiment: Ca^2+ uptake and Ca^2+ content of the intracellular stores of permeabilized DT40 cells; assay type: cell-based
Experimental: Briefly, the ER was loaded with indicator by incubating cells (∼5 × 10^7 mL^−1) in the dark with Mag-fluo-4AM (20 μM) in HEPES-buffered saline (HBS) containing 0.02% (v/v) Pluronic F127 for 1 h at 22°C. […] Ca^2+-free CLM had the following composition: 2 mM NaCl, 140 mM KCl, 1 mM EGTA, 20 mM PIPES, 2 mM MgCl2, pH 7.0. Permeabilized cells were then distributed into 96-well plates (50 μL, 5 × 10^5 cells per well), centrifuged (300× g, 2 min) and used for experiments at 20°C. […] After 2 min, when the ER had loaded to steady-state with Ca^2+, IP3 was added with CPA (10 μM) to inhibit further Ca^2+ uptake. […] The timings of antagonist additions are described in the figure legends. The affinity of each competitive antagonist (pKD) was determined from the intercept on the abscissa of the Schild plot.

HEK cells = experiment: Carbachol-evoked Ca^2+ signals in intact HEK cells; assay type: cell-based; settings: Homo sapiens, HEK293; intact fluo-4-loaded HEK cells; control cells; read-out: pEC50 for the carbachol-evoked Ca^2+ signals (converted)
Experimental: as §3

[4] = IP3R3, AdA-evoked Ca^2+ release
[5] = IP3R1, AdA-evoked Ca^2+ release
[6] = IP3R1, IP3-evoked Ca^2+ release
[7] = IP3R1, heparin 400 μg·mL^−1, Δ = control – response with antagonist
[8] = IP3R2, IP3-evoked Ca^2+ release

Molecule: Heparin
- affinity of the NT for heparin relative to that measured in functional analyses / full-length IP3R [1]: up to 2000 fold
- KD for heparin (Schild plot) (rat IP3R3; [4]): 2.1 mg/L
- slope of the Schild plots (rat IP3R3; [4]): 0.98 ± 0.04
- slope of the Schild plots (rat IP3R3; IP3R3, IP3-evoked Ca^2+ release): 1.14 ± 0.41
- KD for heparin (Schild plot) (rat IP3R3; IP3R3, IP3-evoked Ca^2+ release, 40% Ca^2+ release): 2.8 mg/L
- ΔMax (rat IP3R3; IP3R3, heparin 400 μg·mL^−1): −3 ± 3%
- ΔpEC50 (rat IP3R3; IP3R3, heparin 400 μg·mL^−1): 2.34 ± 0.07 M
- pEC50(IP3)-pKD(heparin) (rat IP3R3; IP3R3, paired comparisons): 1.11 ± 0.08
- KD for heparin (Schild plot) (rat IP3R1; [5]): 6.9 mg/L
- slope of the Schild plots (rat IP3R1; [5]): 0.94 ± 0.03
- KD for heparin (Schild plot) (rat IP3R1; [6]): 4.1 mg/L
- slope of the Schild plots (rat IP3R1; [6]): 0.95 ± 0.02
- ΔMax (rat IP3R1; [7]): −7 ± 2%
- ΔpEC50 (rat IP3R1; [7]): 1.88 ± 0.05 M
- pEC50(IP3)-pKD(heparin) (rat IP3R1; IP3R1, paired comparisons): 2.08 ± 0.02
- KD for heparin (Schild plot) (mouse IP3R2; [8]): 22 mg/L
- slope of the Schild plots (mouse IP3R2; [8]): 0.97 ± 0.06
- ΔMax (mouse IP3R2; IP3R2, heparin 800 μg·mL^−1): −4 ± 2%
- ΔpEC50 (mouse IP3R2; IP3R2, heparin 800 μg·mL^−1): 1.49 ± 0.09 M
- pEC50(IP3)-pKD(heparin) (mouse IP3R2; IP3R2, paired comparisons): 2.16 ± 0.09

Molecule: NCCOB(c1ccccc1)c1ccccc1 [2-APB, 2-aminoethoxydiphenyl borate]
- effect on IP3-evoked Ca^2+ release (rat IP3R3; DT40-IP3R3 cells, 2-APB 50 μM): no significant effect
- ΔMax (rat IP3R3; IP3R3, 2-APB 50 μM): 8 ± 4%
- ΔpEC50 (rat IP3R3; IP3R3, 2-APB 50 μM): 0.02 ± 0.09 M
- effect on IP3-evoked Ca^2+ release (rat IP3R3; IP3R3, 2-APB 100 μM): some inhibition
- effect on binding of ^3H-IP3 to cerebellar membranes [2]: unaffected
- effect on Ca^2+ uptake by the ER ([3]; permeabilized DT40-IP3R1 cells, 50 μM 2-APB): no effect
- effect on steady-state Ca^2+ content of the ER ([3]; permeabilized DT40-IP3R1 cells, 2-APB concentrations higher than 50 μM): reduced the steady-state Ca^2+ content
- ΔMax (rat IP3R1; IP3R1, 2-APB 50 μM): 0 ± 4%
- ΔpEC50 (rat IP3R1; IP3R1, 2-APB 50 μM added 35 s before IP3): 0.84 ± 0.12 M
- effect on IP3-evoked Ca^2+ release (mouse IP3R2; DT40-IP3R2 cells, 2-APB 50 μM): no significant effect
- ΔMax (mouse IP3R2; IP3R2, 2-APB 50 μM): 0 ± 4%
- effect on IP3-evoked Ca^2+ release (mouse IP3R2; IP3R2, 2-APB 100 μM): no effect

Molecule: C[N+](C)(C)CCOC(N)=O [carbachol, Carbachol]
- EC50 (HEK cells): 10.2 µM

Molecule: Nc1ncnc2c1ncn2[C@@H]1O[C@H](CO)[C@@H](O[C@H]2O[C@H](CO)[C@@H](OP(=O)(O)O)[C@H](OP(=O)(O)O)[C@H]2O)[C@H]1OP(=O)(O)O [AdA, adenophostin A]
- EC50 (rat IP3R3; permeabilized DT40-IP3R3 cells, read-out: pEC50 (IP3 or AdA-evoked Ca^2+ release) (converted)): 0.0195 µM
- EC50 (rat IP3R1; permeabilized DT40-IP3R1 cells, read-out: pEC50 (IP3 or AdA-evoked Ca^2+ release) (converted)): 0.00447 µM

Molecule: Cn1c(=O)c2c(ncn2C)n(C)c1=O [Caffeine]
- effect on binding of ^3H-IP3 to cerebellar membranes [2]: without affecting
- effect on Ca^2+ content of the intracellular stores ([3]; DT40-IP3R1-3 cells, caffeine 70 mM added 2 min before ATP): significantly reduced
